Results taken from US8957096B2, “Herbicidally active oxime-ether-substituted benzoylamides” (Bayer Intellectual Property GmbH, priority 2011, dated 2015).

What was measured:
Assay type in all cases: in vivo
Stellaria media [1] = assay: Pre-emergence herbicidal action against harmful plants; conditions: 504 h, application rate 320 g/ha, assessed visually after 3 weeks vs untreated controls, read-out: herbicidal activity in percent (%)
Description: (§1) 1. Pre-Emergence Herbicidal Action Against Harmful Plants Seeds of monocotyledonous and dicotyledonous weed plants and crop plants are placed in wood-fiber pots in sandy loam and covered with soil. The compounds according to the invention, formulated in the form of wettable powders (WP) or as emulsion concentrates (EC), are then applied as aqueous suspension or emulsion at a water application rate of 600 to 800 l/ha (converted) with the addition of 0.2% of wetting agent to the surface of the covering soil. After the treatment, the pots are placed in a greenhouse and kept under good growth conditions for the test plants. The damage to the test plants is assessed visually after a test period of 3 weeks by comparison with untreated controls (herbicidal activity in percent (%): 100% activity=the plants have died, 0% activity=like control plants). Here, the compounds Nos. 1-002, 1-004, 1-007, 1-008, 1-043, 1-044, 1-046, 1-047, 1-060, 1-079, 1-080, 1-082, 1-083, 1-085, 1-095, 1-096, 1-098, 1-099, 1-059, 2-015, 3-015, 3-018, 3-020, 4-001, 4-118, 5-004, 5-017, 5-043, 5-056, 5-082, 5-095, 6-017, 7-017, 8-017 and 8-014, for example, each show, at an application rate of 320 g/ha, an activity of at least 80% against Abuthilon theophrasti and Amaranthus retroflexus. The compounds Nos. 1-001, 1-005, 1-014, 1-015, 1-017, 1-018, 1-020, 1-033, 1-040, 1-041, 1-053, 1-054, 1-056, 1-057, 1-092, 1-093, 3-014, 3-015, 8-014, 8-017 and 8-015 each show, at an application rate of 320 g/ha, an activity of at least 80% against Setaria viridis and Stellaria media. The compounds Nos. 3-017, 4-092 and 6-004 show, at an application rate of 320 g/ha, an activity of at least 80% against Amaranthus retroflexus and Veronica persica.

Setaria viridis = assay: as above; conditions: 504 h, application rate 320 g/ha, assessed visually after 3 weeks vs untreated controls, read-out: herbicidal activity in percent (%)
Description: as §1

Stellaria media [2] = assay: Post-emergence herbicidal action against harmful plants; conditions: 504 h, application rate 80 g/ha, assessed visually after about 3 weeks vs untreated controls, read-out: herbicidal action in percent (%)
Procedure: (§2) 2. Post-Emergence Herbicidal Action Against Harmful Plants Seeds of monocotyledonous and dicotyledonous weed and crop plants are placed in sandy loam in wood-fiber pots, covered with soil and cultivated in a greenhouse under good growth conditions. 2 to 3 weeks after sowing, the test plants are treated at the one-leaf stage. The inventive compounds formulated in the form of wettable powders (WP) or as emulsion concentrates (EC) are then sprayed onto the green parts of the plants as an aqueous suspension or emulsion at a water application rate of 600 to 800 l/ha (converted) with addition of 0.2% wetting agent. After the test plants have been left to stand in the greenhouse under optimal growth conditions for about 3 weeks, the action of the formulations is assessed visually in comparison to untreated controls (herbicidal action in percent (%): 100% activity=the plants have died, 0% activity=like control plants). Here, the compounds Nos. 1-001, 1-002, 1-004, 1-005, 1-007, 1-008, 1-014, 1-015, 1-017, 1-018, 1-020, 1-033, 1-040, 1-041, 1-043, 1-044, 1-046, 1-047, 1-053, 1-054, 1-056, 1-057, 1-059, 1-060, 1-079, 1-080, 1-082, 1-083, 1-086, 1-092, 1-093, 1-095, 1-096, 1-098, 1-099, 2-015, 3-014, 3-015, 3-017, 3-018, 3-020, 5-082, 5-095, 6-017, 7-017 and 8-014 each show, at an application rate of 80 g/ha, an activity of at least 80% against Abuthilon theophrasti, Amaranthus retroflexus and Stellaria media. The compounds Nos. 4-092, 4-093, 5-004, 5-017, 5-043 and 5-056 each show, at an application rate of 80 g/ha, an activity of at least 80% against Echinocloa crus galli, Pharbitis purpureum and Stellaria media.

Amaranthus retroflexus [3] = assay: as above; conditions: 504 h, application rate 80 g/ha, assessed visually after about 3 weeks vs untreated controls, read-out: herbicidal action in percent (%)
Procedure: as §2

Abuthilon theophrasti [4] = assay: as above; conditions: 504 h, application rate 80 g/ha, assessed visually after about 3 weeks vs untreated controls, read-out: herbicidal action in percent (%)
Procedure: as §2

Amaranthus retroflexus [5] = assay: Pre-emergence herbicidal action against harmful plants; conditions: 504 h, application rate 320 g/ha, assessed visually after 3 weeks vs untreated controls, read-out: herbicidal activity in percent (%)
Description: as §1

Abuthilon theophrasti [6] = assay: as above; conditions: 504 h, application rate 320 g/ha, assessed visually after 3 weeks vs untreated controls, read-out: herbicidal activity in percent (%)
Description: as §1

CCCn1nnnc1NC(=O)c1ccc(S(C)(=O)=O)c(/C=N/OCC)c1Cl [1-093]
≥ 80%: pest or weed control at 320 g/ha (Stellaria media [1]) | pest or weed control at 320 g/ha (Setaria viridis) | pest or weed control at 80 g/ha (Stellaria media [2]) | pest or weed control at 80 g/ha (Amaranthus retroflexus [3]) | pest or weed control at 80 g/ha (Abuthilon theophrasti [4])

CC(C)=NOCc1c(S(C)(=O)=O)ccc(C(=O)Nc2nnc(C)o2)c1Cl [8-017]
≥ 80%: pest or weed control at 320 g/ha (Stellaria media [1]) | pest or weed control at 320 g/ha (Setaria viridis) | pest or weed control at 320 g/ha (Amaranthus retroflexus [5]) | pest or weed control at 320 g/ha (Abuthilon theophrasti [6])

CO/N=C/c1c(S(C)(=O)=O)ccc(C(=O)Nc2nnnn2C)c1Cl [1-014]
≥ 80%: pest or weed control at 320 g/ha (Stellaria media [1]) | pest or weed control at 320 g/ha (Setaria viridis) | pest or weed control at 80 g/ha (Stellaria media [2]) | pest or weed control at 80 g/ha (Amaranthus retroflexus [3]) | pest or weed control at 80 g/ha (Abuthilon theophrasti [4])

C=NOCc1c(S(C)(=O)=O)ccc(C(=O)Nc2nnc(C)o2)c1Cl [8-014]
≥ 80%: pest or weed control at 320 g/ha (Stellaria media [1]) | pest or weed control at 320 g/ha (Setaria viridis) | pest or weed control at 320 g/ha (Amaranthus retroflexus [5]) | pest or weed control at 320 g/ha (Abuthilon theophrasti [6]) | pest or weed control at 80 g/ha (Stellaria media [2]) | pest or weed control at 80 g/ha (Amaranthus retroflexus [3]) | pest or weed control at 80 g/ha (Abuthilon theophrasti [4])
